In brackets after ≈: the same amount, converted by molar mass.
Test system: up to 32 different microorganisms
Assay: in vitro antibacterial activity (MIC), agar dilution on Brain Heart Infusion (BHI) agar with Steers replicator
Type: cell-based
Conditions: unit assumed
Summary of the method: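 Up to 32 strains were replicator-inoculated (1:100, or 1:10 for Micrococcus and Streptococcus) onto BHI agar plates holding serial compound dilutions and kept 20-24 h at 35-37° C. Plates were read visually against drug-free growth controls, with erythromycin A run alongside; MIC was the lowest concentration giving no growth, slight haze or sparse colonies.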

CC[C@H]1OC(=O)[C@H](C)C(=O)[C@H](C)[C@@H](O[C@@H]2O[C@H](C)C[C@H](N(C)C)[C@H]2O)[C@@](C)(OCCNCc2ccncc2)C[C@@H](C)C(=O)[C@H](C)[C@@H](O)[C@]1(C)O [Example 12, Compound of Formula (VIII): X is O, R is —CH2CH2NHCH2-(4-pyridyl)]
MIC (Candida albicans CCH 442 (code TT)): > 100 µg/mL | MIC (Enterococcus faecism ATCC 8043 (code II)): 1.56 µg/mL | MIC (Escherichia coli DC-2 (code SS)): > 100 µg/mL | MIC (Escherichia coli JUHL (code QQ)): > 100 µg/mL | MIC (Escherichia coli SS (code RR)): 0.39 µg/mL | MIC (Haemophilis influenzae DILL AMP R (code WW)): 32 µg/mL | MIC (Micrococcus luteus ATCC 4698 (code PP)): 0.78 µg/mL | MIC (Micrococcus luteus ATCC 9341 (code OO)): 0.39 µg/mL | MIC (Nocardia Asteroides ATCC9970 (code VV)): 0.39 µg/mL | MIC (Staphylococcus aureus 1775 (code GG)): > 100 µg/mL | MIC (Staphylococcus aureus A5177 (code BB)): 3.1 µg/mL | MIC (Staphylococcus aureus A-5278 (code CC)): > 100 µg/mL | MIC (Staphylococcus aureus ATCC 6538P (code AA)): 6.2 µg/mL | MIC (Staphylococcus aureus CMX 553 (code FF)): 6.2 µg/mL | MIC (Staphylococcus aureus CMX 642A (code DD)): 6.2 µg/mL | MIC (Staphylococcus aureus NCTC10649M (code EE)): 6.2 µg/mL | MIC (Staphylococcus epidermidis 3519 (code HH)): 12.5 µg/mL | MIC (Streptococcus Pneumonia 5649 (code ZZA)): 2 µg/mL | MIC (Streptococcus Pneumonia 5979 (code ZZ)): > 128 µg/mL | MIC (Streptococcus Pneumonia ATCC6303 (code XX)): 0.25 µg/mL | MIC (Streptococcus agalactiae CMX 508 (code KK)): 0.78 µg/mL | MIC (Streptococcus bovis A-5169 (code JJ)): 0.2 µg/mL | MIC (Streptococcus pyogenes 930 (code MM)): > 100 µg/mL | MIC (Streptococcus pyogenes EES61 (code LL)): 0.39 µg/mL | MIC (Streptococcus pyogenes PIU 2548 (code NN)): 1.56 µg/mL

CCC1OC(=O)C(C)C(=O)C(C)C(OC2OC(C)CC(N(C)C)C2O)C(C)(OCC=Cc2cnc3ccc(C(N)=O)cc3c2)CC(C)C(=O)C(C)C2NC(=O)OC12C (stereo not drawn) [Example 217, R is —CH2CH═CH-(6-aminocarbonyl-3-quinolyl)]
MIC (organism code AA): 0.2 µg/mL (≈ 0.247 µM) | MIC (organism code BB): 0.39 µg/mL (≈ 0.482 µM) | MIC (organism code CC): > 100 µg/mL | MIC (organism code DD): 0.39 µg/mL (≈ 0.482 µM) | MIC (organism code FF): 0.2 µg/mL (≈ 0.247 µM) | MIC (organism code GG): > 100 µg/mL | MIC (organism code HH): 0.39 µg/mL (≈ 0.482 µM) | MIC (organism code II): 0.2 µg/mL (≈ 0.247 µM) | MIC (organism code JJ): 0.02 µg/mL (≈ 0.0247 µM) | MIC (organism code KK): 0.02 µg/mL (≈ 0.0247 µM) | MIC (organism code LL): 0.02 µg/mL (≈ 0.0247 µM) | MIC (organism code MM): 0.78 µg/mL (≈ 0.964 µM) | MIC (organism code NN): 0.78 µg/mL (≈ 0.964 µM) | MIC (organism code OO): 0.1 µg/mL (≈ 0.124 µM) | MIC (organism code PP): 0.39 µg/mL (≈ 0.482 µM) | MIC (organism code QQ): 50 µg/mL (≈ 61.8 µM) | MIC (organism code RR): 0.39 µg/mL (≈ 0.482 µM) | MIC (organism code SS): > 100 µg/mL | MIC (organism code TT): > 100 µg/mL | MIC (organism code UU): 12.5 µg/mL (≈ 15.5 µM) | MIC (organism code VV): 0.78 µg/mL (≈ 0.964 µM) | MIC (organism code WW): 2 µg/mL (≈ 2.47 µM) | MIC (organism code XX): 0.03 µg/mL (≈ 0.0371 µM) | MIC (organism code YY): 0.03 µg/mL (≈ 0.0371 µM) | MIC (organism code ZZ): 2 µg/mL (≈ 2.47 µM) | MIC (organism code ZZA): 2 µg/mL (≈ 2.47 µM)

CCC1OC(=O)C(C)C(=O)C(C)C(OC2OC(C)CC(N(C)C)C2O)C(C)(OCC=Cc2cc(Cl)cc(Cl)c2)CC(C)C(=O)C(C)C2NC(=O)OC12C (stereo not drawn) [Example 284, Compound of Formula (IX): L is CO, T is NH2, R is —CH2CH═CH-(3,5-dichlorophenyl)]
MIC (organism code AA): 0.2 µg/mL | MIC (organism code BB): 0.2 µg/mL | MIC (organism code CC): 50 µg/mL | MIC (organism code DD): 0.2 µg/mL | MIC (organism code EE): 0.2 µg/mL | MIC (organism code FF): 0.2 µg/mL | MIC (organism code GG): 50 µg/mL | MIC (organism code HH): 0.2 µg/mL | MIC (organism code II): 0.05 µg/mL | MIC (organism code JJ): 0.02 µg/mL | MIC (organism code KK): 0.02 µg/mL | MIC (organism code LL): ≤ 0.005 µg/mL | MIC (organism code MM): 25 µg/mL | MIC (organism code NN): 0.2 µg/mL | MIC (organism code OO): 0.05 µg/mL | MIC (organism code PP): 0.2 µg/mL | MIC (organism code QQ): > 100 µg/mL | MIC (organism code RR): 1.56 µg/mL | MIC (organism code SS): > 100 µg/mL | MIC (organism code TT): 50 µg/mL | MIC (organism code UU): 0.2 µg/mL | MIC (organism code VV): 0.78 µg/mL | MIC (organism code WW): 4 µg/mL | MIC (organism code XX): 0.03 µg/mL | MIC (organism code YY): 0.03 µg/mL | MIC (organism code ZZ): 32 µg/mL | MIC (organism code ZZA): 0.25 µg/mL

CCC1OC(=O)C(C)C(=O)C(C)C(OC2OC(C)CC(N(C)C)C2O)C(C)(OCC=Cc2ccc3ccccc3n2)CC(C)C(=O)C(C)C2NC(=O)OC12C (stereo not drawn) [Example 212, R is —CH2CH═CH-(2-quinolyl)]
MIC (organism code AA): 0.39 µg/mL (≈ 0.509 µM) | MIC (organism code BB): 0.39 µg/mL (≈ 0.509 µM) | MIC (organism code CC): > 100 µg/mL | MIC (organism code DD): 0.39 µg/mL (≈ 0.509 µM) | MIC (organism code EE): 0.39 µg/mL (≈ 0.509 µM) | MIC (organism code FF): 0.39 µg/mL (≈ 0.509 µM) | MIC (organism code GG): > 100 µg/mL | MIC (organism code HH): 0.39 µg/mL (≈ 0.509 µM) | MIC (organism code II): 0.1 µg/mL (≈ 0.131 µM) | MIC (organism code JJ): ≤ 0.005 µg/mL | MIC (organism code KK): 0.1 µg/mL (≈ 0.131 µM) | MIC (organism code LL): 0.05 µg/mL (≈ 0.0653 µM) | MIC (organism code MM): 25 µg/mL (≈ 32.6 µM) | MIC (organism code NN): 0.39 µg/mL (≈ 0.509 µM) | MIC (organism code OO): 0.05 µg/mL (≈ 0.0653 µM) | MIC (organism code PP): 0.39 µg/mL (≈ 0.509 µM) | MIC (organism code QQ): > 100 µg/mL | MIC (organism code RR): 0.39 µg/mL (≈ 0.509 µM) | MIC (organism code SS): > 100 µg/mL | MIC (organism code TT): > 100 µg/mL | MIC (organism code UU): 0.78 µg/mL (≈ 1.02 µM) | MIC (organism code VV): 0.2 µg/mL (≈ 0.261 µM) | MIC (organism code WW): 8 µg/mL (≈ 10.4 µM) | MIC (organism code XX): 0.125 µg/mL (≈ 0.163 µM) | MIC (organism code YY): 0.25 µg/mL (≈ 0.326 µM) | MIC (organism code ZZ): 128 µg/mL (≈ 167 µM) | MIC (organism code ZZA): 1 µg/mL (≈ 1.31 µM)
